# Values of other authors in publication PMC10590117 (International Journal of Nanomedicine, 2023).
# Conditions: humans
structure (smiles),measurement,value
"COc1cc(/C=C/C(=O)CC(=O)/C=C/c2ccc(O)c(OC)c2)ccc1O [curcumin, Curcumin]",Peroral bioavailability,~1%
